The conditions of series [1]: background statement, no method given; cited from earlier work.
Series [2] in a line: Water solubility (excess compound suspended in distilled water, supernatant measured by HPLC). It counts as physicochemical. How it is done:
The water solubility of ivacaftor and ivacaftor-17-O-D-glucoside was investigated by suspending excess amounts of the two compounds in 200 μl of distilled water in a microcentrifuge tube at 25° C. for 12 h. Afterwards, each sample was centrifuged at 12,000×g for 20 min. The supernatant of each sample was then filtered through a 0.45-μm membrane filter and the concentration of the compound in the supernatant, which is defined as the water-soluble component, was measured by its absorbance at 300 nm using HPLC, and its absolute solubility was calculated in reference to the concentration-absorbance standard curve.

Molecules are shown by their SMILES. Values after ≈ are worked out from the molar mass of the structure shown.

The solubility is the concentration that dissolves in the medium under given conditions. On to `CC(C)(C)c1cc(C(C)(C)C)c(NC(=O)c2c[nH]c3ccccc3c2=O)cc1O` [ivacaftor, Ivacaftor], for which the solubility in water in series [1] was less than 1 µg/mL. In series [2] (25 °C, water, thermodynamic from solid), this compound yielded a solubility at 12 h of 0.1 µg/mL (≈ 0.255 µM).
As to `CC(C)(C)c1cc(C(C)(C)C)c(OC2O[C@H](CO)[C@@H](O)[C@H](O)[C@H]2O)cc1NC(=O)c1c[nH]c2ccccc2c1=O` (stereo partly drawn) [ivacaftor-17-O-D-glucoside], in series [2] (distilled water, 25° C., 12 h, relative to ivacaftor), the “water solubility, times higher than ivacaftor” value is 14,550 times. The water solubility in series [2] (distilled water, 25° C., 12 h, supernatant filtered 0.45-μm, absorbance at 300 nm by HPLC) was 1,455 mg/L.

Source of the values: patent US20230124589A1, “Ivacaftor Glycosides, Methods Of Making, And Uses Thereof In Treating Cystic Fibrosis” (DoubleRainbow Biosciences Inc., priority 2020, published 2023).
